# US20260327224A1, “SUBSTITUTED PYRIDOTRIAZOLE COMPOUND, AND PREPARATION METHOD THEREFOR AND USE THEREOF” (ORIGIANT PHARMACEUTICAL CO., LTD., priority 2023, published 2026)
# Tested on: HT-29 cells (colon cancer cells)
# Assay: In vitro assay for protection of HT-29 cells from necroptosis (TNFα/Smac mimetic/Z-VAD-FMK, CCK-8)
# Type: cell-based
# Settings: Homo sapiens, Protective Activity Against Necroptosis, TNFα/Smac mimetic/Z-VAD-FMK induced, 24 h
# Description: Z′=1−3(SDmin+SDmax)/(AVEmax−AVEmin) • wherein: • Min is the positive control Data, and Max is the negative control DMSO Data. • SD is the standard deviation, and AVE is the average. In Vitro Assay for Protection of HT-29 Cells from Necroptosis:
# 1) Experimental Materials
# DMEM medium was purchased from Gibco; penicillin-streptomycin was purchased from Hyclone; TNFα was purchased from Peprotech; Smac mimetic and Z-VAD-FMK were purchased from Selleck; and CCK-8 was purchased from Medchem Express.
# HT-29 cells (colon cancer cells) were cultured in DMEM+10% FBS+penicillin/streptomycin. For the experiment, HT-29 cells in the logarithmic phase were collected and seeded into 96-well plates at a specific density (typically 8×10^3 cells/well for adherent cells). The cells were cultured overnight in an incubator at 37° C. with 5% CO2. On the following day, the test compound was diluted with culture medium to the corresponding concentrations and added into the 96-well plate, with 3 replicate wells for each sample. A solvent control group and a blank control group containing only culture medium were set simultaneously. The spiked cells were induced with a combination of TNFα/Smac mimetic/Z-VAD-FMK for 24 h. Subsequently, 10 μL of CCK8 solution was added to each well, and the cells were incubated in an incubator for 1-3 h. Absorbance was measured at […] using a microplate reader, and the cell necrosis protection rate of the drug was calculated using the following formula:
# Cell necrosis protection rate=[(X−C0)/(C−C0)]×100% • where C, C0, and X represent the average absorbance values of the solvent control group, the blank control group, and the drug treatment group, respectively. Finally, a cell viability curve was fitted using Graphpad Prism 5.0 software, and the EC50 value of the test compound for inhibiting necroptosis was calculated.
row,SMILES,EC50 [nM]
1,C[C@H](NC(=O)c1cn(C)c2ccc(-c3ccn4nc(NC(=O)CN(C)C)nc4c3)cc12)c1ccc(F)cc1 [Compound 40],< 1
2,C[C@H](NC(=O)c1cn(C)c2ccc(-c3ccn4nc(NC(=O)CNCCOCCO)nc4c3)cc12)c1ccc(F)cc1 [Compound 65],< 1
3,C[C@H](NC(=O)c1nn(C)c2ccc(-c3ccn4nc(NC(=O)CN5CCOCC5)nc4c3)cc12)c1ccc(F)cc1 [Compound 196],< 1
4,CO[C@@H](C)C(=O)Nc1nc2cc(-c3ccc4c(c3)c(C(=O)N[C@H](c3ccc(F)cc3)C(F)F)cn4C)ccn2n1 [Compound 165],< 1
5,C[C@H](NC(=O)c1cn(C)c2ccc(-c3ccn4nc(NC(=O)CNCC5CC5)nc4c3)cc12)c1ccc(F)cc1 [Compound 66],< 1
6,C[C@H](NC(=O)c1cn(C)c2ccc(-c3ccn4nc(NC(=O)CN5CCOCC5)nc4c3)cc12)c1ccc(F)cc1 [Compound 75],< 1
7,CN1CCN(C(=O)Nc2nc3cc(-c4ccc5c(c4)c(C(=O)N[C@@H](CF)c4ccc(F)cc4)cn5C)ccn3n2)CC1 [Compound 95],< 1
8,C[C@H](NC(=O)c1cn(C)c2ccc(-c3ccn4nc(NC(=O)CN5CCSCC5)nc4c3)cc12)c1ccc(F)cc1 [Compound 43],< 1
9,C[C@@H](c1ccc(F)cc1)N(C)C(=O)c1cn(C)c2ccc(-c3ccn4nc(NC(=O)[C@@H]5CCCO5)nc4c3)cc12 [Compound 176],< 1
10,CC(=O)Nc1nc2cc(-c3ccc4c(c3)c(C(=O)N[C@H]3CCc5cc(C#N)ccc53)cn4C)ccn2n1 [Compound 132],100 to 1000
11,C[C@H](NC(=O)c1cn(C)c2ccc(-c3ccn4nc(NC(=O)CN5CC[C@H](CO)C5)nc4c3)cc12)c1ccc(F)cc1 [Compound 61],1 to 10
12,C[C@H](NC(=O)c1nn(C)c2ccc(-c3ccn4nc(NC(=O)C5CC5)nc4c3)cc12)c1ccc(F)cc1 [Compound 192],< 1
13,CN(C)CC(=O)Nc1nc2cc(-c3ccc4c(c3)c(C(=O)N[C@H]3CCc5ccc(F)cc53)cn4C)ccn2n1 [Compound 123],1 to 10
14,Cn1cc(C(=O)N[C@@H](CF)c2ccc(F)cc2)c2cc(-c3ccn4nc(NC(=O)C#N)nc4c3)ccc21 [Compound 102],< 1
15,C[C@H](NC(=O)c1cn(C)c2ccc(-c3ccn4nc(NC(=O)N5CCOCC5)nc4c3)cc12)c1cccc(F)c1 [Compound 118],< 1
16,COCCn1cc(C(=O)N[C@@H](CF)c2ccc(F)cc2)c2cc(-c3ccn4nc(NC(=O)N5CCOCC5)nc4c3)ccc21 [Compound 214],10 to 100
17,Cn1cc(C(=O)N2N=CCC2c2ccc(F)cc2)c2cc(-c3ccn4nc(NC(=O)C5CCOC5)nc4c3)ccc21 (stereo not drawn) [Compound 169],< 1
18,Cn1nc(C(=O)N[C@@H](CF)c2ccc(F)cc2)c2cc(-c3ccn4nc(NC(=O)C5CCOC5)nc4c3)ccc21 (stereo partly drawn) [Compound 188],< 1
19,COCC(=O)Nc1nc2cc(-c3ccc4c(c3)c(C(=O)N[C@H](c3ccc(F)cc3)C(F)F)cn4C)ccn2n1 [Compound 166],< 1

row,SMILES,EC50 [nM]
1,C[C@H](NC(=O)c1cn(C)c2ccc(-c3ccn4nc(NC(=O)CN5CCOCC5)nc4c3)cc12)C(C)(C)C [Compound 90],1000 to 10000
2,C[C@H](NC(=O)c1cn(C)c2ccc(-c3ccn4nc(NC(=O)CN5CC(C#N)C5)nc4c3)cc12)c1ccc(F)cc1 [Compound 34],< 1
3,C[C@H](NC(=O)c1cn(C)c2ccc(-c3ccn4nc(NC(=O)[C@H]5CCCO5)nc4c3)cc12)c1ccc(F)cc1 [Compound 117],< 1
4,C[C@H](NC(=O)c1cn(C)c2ccc(-c3ccn4nc(NC(=O)[C@@H]5CCC(=O)N5)nc4c3)cc12)c1ccc(F)cc1 [Compound 14],< 1
5,CN(C)CC(=O)Nc1nc2cc(-c3ccc4c(c3)c(C(=O)N[C@H](c3ccc(F)cc3)C(F)F)cn4C)ccn2n1 [Compound 167],< 1
6,COC(C)C(=O)Nc1nc2cc(-c3ccc4c(c3)c(C(=O)N[C@@H](CF)c3ccc(F)cc3)cn4C)ccn2n1 (stereo partly drawn) [Compound 112],< 1
7,C[C@H](NC(=O)c1cn(C)c2ccc(-c3ccn4nc(NC(=O)CC5CCCCC5)nc4c3)cc12)c1ccc(F)cc1 [Compound 13],< 1
8,CC(=O)Nc1nc2cc(-c3ccc4c(c3)c(C(=O)N[C@H]3CCCc5ccc(F)cc53)cn4C)ccn2n1 [Compound 145],1 to 10
9,CC(c1ccc(F)cc1)n1cnc(-c2cn(C)c3ccc(-c4ccn5nc(NC(=O)C6CC6F)nc5c4)cc23)n1 (stereo not drawn) [Compound 209],100 to 1000
10,CCN(CC)CC(=O)Nc1nc2cc(-c3ccc4c(c3)c(C(=O)N[C@@H](C)c3ccc(F)cc3)cn4C)ccn2n1 [Compound 36],< 1
11,Cn1cc(C(=O)N[C@H](c2ccc(F)cc2)C(F)F)c2cc(-c3ccn4nc(NC(=O)CN5CCCCC5)nc4c3)ccc21 [Compound 163],< 1
12,CC(c1ccc(F)cc1)n1cnnc1-c1cn(C)c2ccc(-c3ccn4nc(NC(=O)C5CCOC5)nc4c3)cc12 (stereo not drawn) [Compound 217],10 to 100
13,Cn1cc(C2=NC(c3ccc(F)cc3)CO2)c2cc(-c3ccn4nc(NC(=O)C5CC5)nc4c3)ccc21 (stereo not drawn) [Compound 212],10 to 100
14,C[C@H](NC(=O)c1cn(C)c2ccc(-c3ccn4nc(N5CCOCC5=O)nc4c3)cc12)c1ccc(F)cc1 [Compound 218],10 to 100
15,C[C@H](NC(=O)c1cn(C)c2ccc(-c3ccn4nc(NC(=O)Cn5ccnn5)nc4c3)cc12)c1ccc(F)cc1 [Compound 52],< 1
16,Cn1cc(C(=O)N[C@@H](CF)c2ccc(F)cc2)c2cc(-c3ccn4nc(NC(=O)[C@H]5CCCO5)nc4c3)ccc21 [Compound 104],1000 to 10000
17,Cn1cc(C(=O)N2CCC[C@H]2c2ccc(F)cc2)c2cc(-c3ccn4nc(NC(=O)C5CCCO5)nc4c3)ccc21 (stereo partly drawn) [Compound 154],< 1
18,C[C@H](NC(=O)c1cn(C)c2ccc(-c3ccn4nc(NC(=O)CN5CCC(N6CCOCC6)CC5)nc4c3)cc12)c1ccc(F)cc1 [Compound 38],< 1
19,C[C@H](NC(=O)c1cn(C)c2ccc(-c3ccn4nc(NC(=O)CN5CCC(C#N)CC5)nc4c3)cc12)c1ccc(F)cc1 [Compound 23],< 1

row,SMILES,EC50 [nM]
1,CC(C(=O)Nc1nc2cc(-c3ccc4c(c3)c(C(=O)N[C@@H](C)c3ccc(F)cc3)cn4C)ccn2n1)N1CC[C@H](O)C1 (stereo partly drawn) [Compound 1],10 to 100
2,CCOC(=O)Nc1nc2cc(-c3ccc4c(c3)c(C(=O)N[C@@H](C)c3ccc(F)cc3)cn4C)ccn2n1 [Compound 17],< 1
3,Cn1cc(C(=O)N2N=CCC2c2ccc(F)cc2)c2cc(-c3ccn4nc(NC(=O)C5CC5)nc4c3)ccc21 (stereo not drawn) [Compound 170],< 1
4,C[C@@H]1CN(CC(=O)Nc2nc3cc(-c4ccc5c(c4)c(C(=O)N[C@@H](C)c4ccc(Cl)cc4)cn5C)ccn3n2)C[C@H](C)O1 [Compound 85],< 1
5,CC(c1ccc(F)cc1)n1cnc(-c2cn(C)c3ccc(-c4ccn5nc(NC(=O)c6cnn(C)c6)nc5c4)cc23)n1 (stereo not drawn) [Compound 208],100 to 1000
6,C[C@H](NC(=O)c1cn(C)c2ccc(-c3ccn4nc(NC(=O)CN5C6CC7CC(C6)C(O)C5C7)nc4c3)cc12)c1ccc(F)cc1 (stereo partly drawn) [Compound 59],< 1
7,C[C@H](NC(=O)c1cn(C)c2ccc(-c3ccn4nc(NC(=O)CN5CC[C@@H](CO)C5)nc4c3)cc12)c1ccc(F)cc1 [Compound 62],< 1
8,C[C@H](NC(=O)c1cn(C)c2ccc(-c3ccn4nc(NC(=O)c5cnn(C)c5)nc4c3)cc12)C(C)(C)C [Compound 91],1000 to 10000
9,C[C@H](NC(=O)c1cn(C)c2ccc(-c3ccn4nc(NC(=O)CN5CCC6(CC5)OCCO6)nc4c3)cc12)c1ccc(F)cc1 [Compound 27],< 1
10,Cn1cc(C(=O)N[C@@H](CF)c2ccc(F)cc2)c2cc(-c3ccn4nc(NC(=O)C5CCOC5)nc4c3)ccc21 (stereo partly drawn) [Compound 109],1 to 10
11,Cn1cc(C(=O)N[C@H]2CCc3cc(C#N)ccc32)c2cc(-c3ccn4nc(NC(=O)C5CC5)nc4c3)ccc21 [Compound 130],1 to 10
12,C[C@H](NC(=O)c1cn(C)c2ccc(-c3ccn4nc(NC(=O)[C@H]5CCCO5)nc4c3)cc12)c1cccc(F)c1 [Compound 119],< 1
13,Cn1cc(C(=O)N[C@@H](CF)c2ccc(F)cc2)c2cc(-c3ccn4nc(NC(=O)C5CC5F)nc4c3)ccc21 (stereo partly drawn) [Compound 113],1 to 10
14,C[C@H](NC(=O)c1cn(C)c2ccc(-c3ccn4nc(NC(=O)CN5CCN(C(=O)C6CC6)CC5)nc4c3)cc12)c1ccc(F)cc1 [Compound 50],< 1
15,Cn1cc(C(=O)N2CC(F)(F)CC2c2ccc(F)cc2)c2cc(-c3ccn4nc(NC(=O)C5CCOC5)nc4c3)ccc21 (stereo not drawn) [Compound 159],< 1
16,COCC(=O)Nc1nc2cc(-c3ccc4c(c3)c(C(=O)N[C@@H](CF)c3ccc(F)cc3)cn4C)ccn2n1 [Compound 97],< 1
17,C[C@H](NC(=O)c1cn(C)c2ccc(-c3ccn4nc(NC(=O)CN5CCC(F)(F)CC5)nc4c3)cc12)c1ccc(F)cc1 [Compound 47],< 1
18,CCn1cc(C(=O)N[C@@H](CF)c2ccc(F)cc2)c2cc(-c3ccn4nc(NC(=O)N5CCOCC5)nc4c3)ccc21 [Compound 200],< 1
19,COC(C)C(=O)Nc1nc2cc(-c3ccc4c(c3)c(-c3nncn3C(C)c3ccc(F)cc3)cn4C)ccn2n1 (stereo not drawn) [Compound 216],10 to 100
